# Like-named read-outs stand apart in the source and are kept apart here.
# How the values were obtained:
# [1] = tested on: p27^KIP1 in 5L (AhR +/+) cells; assay: p27KIP1 expression by Western blotting, 5L cells; type: cell-based, mouse; conditions: 10 μM indirubins or 0.1 μM TCDD, 24 hr
# [2] = tested on: 5L (AhR +/+) hepatoma cells; assay: Cell proliferation by direct counting, 5L cells; type: cell-based, mouse; conditions: 20 μM, 24 and 48 hr
# Experimental: (§1) The protocol followed was similar to those previously described in Weiss C, Kolluri S K, Kiefer F and Göttlicher M. (1996). Exp. Cell Res., 226, 154-163, and Kolluri S K, Weiss C, Koff A and Gbttlicher M. (1999). Genes & Dev., 13, 1742-1753. The mouse 5L hepatoma cell line (AhR +/+) and BP8 (an AhR −/− subclone) were kindly provided by Dr. M. Gottlicher (Forschungszentrun Karlsruhe, Institute of Genetics, 76021 Karlsruhe, Germany). Cells were cultured in Dulbecco's modified Eagle medium (DMEM) (Biowhittaker) supplemented with 2 mM L-glutamine (Eurobio), 10% fetal calf serum (FCS), and gentamycin (Gibco BRL) at 37° C. in an atmosphere of 7% CO2. […] Control experiments were carried out using appropriate dilutions of DMSO.
# (§2) The effects of IO and MeOO (20 μM) on the proliferation rate of 5L and BP8 cell lines was determined by counting directly the number of live cells after 24 and 48 hr of exposure to the indirubins (FIG. 17).
# [3] = tested on: 5L (AhR +/+) hepatoma cells; assay: Cell viability MTT assay, 5L cells; type: cell-based, mouse; conditions: range of concentrations, 24 and 48 hr
# [4] = tested on: 5L (AhR +/+) hepatoma cells; assay: FACS cell cycle analysis, 5L cells; type: cell-based, mouse; conditions: 10 μM indirubins or 100 nM TCDD, 24 hr
# GSK-3α/β = GSK-3α/β kinase assay (GS-1 peptide, 15 μM ATP); type: biochemical, porcine
# [5] = tested on: GSK-3α (Tyr276) / GSK-3β (Tyr216); assay: Tyrosine phosphorylation of GSK-3 in SH-SY5Y cells (Western blot); type: cell-based, human; conditions: 1 μM, 12 hr
# Text: GSK-3α and GSK-3β activity is enhanced by the phosphorylation of a specific tyrosine residue (Tyr276 and Tyr216, respectively) (Hughes et al. (1993) EMBO J. 12: 803-808; Dajani et al. (2003) EMBO J. 22: 494-501). The tyrosine kinase responsible for this phosphorylation in mammals is unknown, but there is some evidence that it indirectly depends on GSK-3 activity (Bhat et al. (2000) Proc. Natl. Acad. Sci. U.S.A. 97: 11074-11079; Shaw et al. (1997) FEBS Lett. 416: 307-311). […] SH-SY5Y cells were exposed to IO, MeIO, BIO and MeBIO for 12 hr and the phosphorylation of Tyr276 (GSK-3α) and Tyr216 (GSK-3β) was estimated by Western blotting with phospho-specific antibodies. […] This was accompanied by an increased level in total GSK-3β, total β-catenin, and dephospho-&catenin.
# CDK5/p25 = CDK5/p25 (Homo sapiens, UniProt Q00535); assay: CDK5/p25 kinase assay (histone H1, 15 μM ATP); type: biochemical, mammalian; conditions: read-out: IC50 CDK5/p25
# [6] = tested on: BP8 (AhR −/−) hepatoma cells; assay: FACS cell cycle analysis, BP8 cells; type: cell-based, mouse; conditions: 10 μM indirubins or 100 nM TCDD, 24 hr
# Experimental: Flow cytometry analysis (Coulter EPIX XL2, Beckman, Calif., USA) of cellular DNA content was performed on ethanol-fixed cell suspensions after ribonuclease A III treatment (Sigma) and propidium iodide (Sigma) staining, as previously described (French et al. (1985) Cytometry 6: 47-53). Percentages of cells in G0/G1, S and G2/M phases of cell cycle were then calculated on the basis of DNA distribution histograms provided by the software manufacturer.
# Both 5L and BP8 cell lines were treated with 10 μM IO, MeIO, BIO, MeBIO or 100 nM TCDD for 24 hr.
# [7] = tested on: BP8 (AhR −/−) hepatoma cells; assay: Cell proliferation by direct counting, BP8 cells; type: cell-based, mouse; conditions: 20 μM, 24 and 48 hr
# Experimental: as §1, §2
# [8] = tested on: BP8 (AhR −/−) hepatoma cells; assay: Cell viability MTT assay, BP8 cells; type: cell-based, mouse; conditions: range of concentrations, 24 and 48 hr
# AhR [9] = target: T1, AhR (Mus musculus, UniProt P30561); conditions: read-out: EC50 AhR (hepatoma cell line); Table 4; EGFP at 24 hours
# T1 sequence (P30561 1-848): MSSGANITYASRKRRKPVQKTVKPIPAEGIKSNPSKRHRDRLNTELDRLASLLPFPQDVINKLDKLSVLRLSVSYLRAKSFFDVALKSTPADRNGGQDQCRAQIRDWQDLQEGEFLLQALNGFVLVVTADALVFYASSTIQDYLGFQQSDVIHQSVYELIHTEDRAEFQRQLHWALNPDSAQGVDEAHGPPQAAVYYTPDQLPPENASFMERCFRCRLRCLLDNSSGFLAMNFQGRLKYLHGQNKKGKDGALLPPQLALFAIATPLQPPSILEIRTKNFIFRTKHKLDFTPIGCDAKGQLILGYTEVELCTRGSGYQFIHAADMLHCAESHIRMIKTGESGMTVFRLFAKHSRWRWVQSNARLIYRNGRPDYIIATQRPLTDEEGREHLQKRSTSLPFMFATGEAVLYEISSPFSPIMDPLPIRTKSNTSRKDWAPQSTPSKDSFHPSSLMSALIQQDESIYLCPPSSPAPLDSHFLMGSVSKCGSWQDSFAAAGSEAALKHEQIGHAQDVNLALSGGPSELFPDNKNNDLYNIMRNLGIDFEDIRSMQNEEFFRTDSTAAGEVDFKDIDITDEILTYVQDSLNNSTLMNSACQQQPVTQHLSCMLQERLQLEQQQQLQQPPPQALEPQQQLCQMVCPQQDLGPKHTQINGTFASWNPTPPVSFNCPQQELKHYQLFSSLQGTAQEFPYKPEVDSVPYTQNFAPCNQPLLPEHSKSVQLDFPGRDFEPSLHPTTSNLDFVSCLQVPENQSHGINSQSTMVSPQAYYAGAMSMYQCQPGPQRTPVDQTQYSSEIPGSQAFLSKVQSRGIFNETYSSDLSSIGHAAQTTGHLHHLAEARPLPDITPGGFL
# AhR [10] = target: AhR (Homo sapiens, UniProt P35869)
# CDK1/cyclin B = CDK1/cyclin B kinase assay (histone H1, 15 μM ATP); type: biochemical, starfish (Marthasterias glacialis)
# CDK5/p25, sequence (Q00535 whole entry, species assumed): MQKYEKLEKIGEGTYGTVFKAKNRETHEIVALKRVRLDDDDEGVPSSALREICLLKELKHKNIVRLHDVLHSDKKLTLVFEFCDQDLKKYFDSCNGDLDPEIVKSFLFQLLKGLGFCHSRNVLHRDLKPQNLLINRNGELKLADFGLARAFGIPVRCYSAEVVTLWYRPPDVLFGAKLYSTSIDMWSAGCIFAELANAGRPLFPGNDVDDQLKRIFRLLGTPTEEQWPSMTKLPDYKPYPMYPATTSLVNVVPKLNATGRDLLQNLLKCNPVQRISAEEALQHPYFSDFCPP
# CDK5/p25, sequence (Q15078 99-307 partner limits assumed, species assumed): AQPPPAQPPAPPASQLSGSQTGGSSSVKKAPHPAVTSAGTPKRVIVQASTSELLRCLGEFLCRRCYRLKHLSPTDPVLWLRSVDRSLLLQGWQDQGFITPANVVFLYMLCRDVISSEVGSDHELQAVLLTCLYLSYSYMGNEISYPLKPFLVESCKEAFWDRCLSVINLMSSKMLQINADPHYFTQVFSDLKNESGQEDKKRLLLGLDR
# AhR (Homo sapiens, UniProt P35869), sequence (P35869 11-848): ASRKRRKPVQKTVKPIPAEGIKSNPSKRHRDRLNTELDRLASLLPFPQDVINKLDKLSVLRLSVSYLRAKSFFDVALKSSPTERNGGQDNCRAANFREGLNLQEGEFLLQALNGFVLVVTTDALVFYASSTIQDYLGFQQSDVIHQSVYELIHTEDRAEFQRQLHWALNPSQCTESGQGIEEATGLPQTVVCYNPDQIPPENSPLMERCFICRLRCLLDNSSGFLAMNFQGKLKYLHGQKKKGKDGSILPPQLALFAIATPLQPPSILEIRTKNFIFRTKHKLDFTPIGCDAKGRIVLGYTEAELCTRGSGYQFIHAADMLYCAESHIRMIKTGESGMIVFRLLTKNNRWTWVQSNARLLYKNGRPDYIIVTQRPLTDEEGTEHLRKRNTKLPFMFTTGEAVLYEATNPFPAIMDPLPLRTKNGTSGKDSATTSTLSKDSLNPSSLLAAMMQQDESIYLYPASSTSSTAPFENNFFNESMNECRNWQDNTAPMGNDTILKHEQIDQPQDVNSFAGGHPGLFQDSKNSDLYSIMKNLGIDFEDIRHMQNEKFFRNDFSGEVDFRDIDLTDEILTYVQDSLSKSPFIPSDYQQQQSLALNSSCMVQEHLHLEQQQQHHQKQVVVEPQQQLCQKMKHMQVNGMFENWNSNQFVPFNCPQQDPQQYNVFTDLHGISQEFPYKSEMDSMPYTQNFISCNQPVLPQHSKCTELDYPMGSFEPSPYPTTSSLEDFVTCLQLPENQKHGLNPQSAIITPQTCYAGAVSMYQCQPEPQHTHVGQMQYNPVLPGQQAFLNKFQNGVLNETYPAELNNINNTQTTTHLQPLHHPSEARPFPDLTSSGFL
# AhR (Homo sapiens, UniProt P35869), sequence (P27540 whole entry partner): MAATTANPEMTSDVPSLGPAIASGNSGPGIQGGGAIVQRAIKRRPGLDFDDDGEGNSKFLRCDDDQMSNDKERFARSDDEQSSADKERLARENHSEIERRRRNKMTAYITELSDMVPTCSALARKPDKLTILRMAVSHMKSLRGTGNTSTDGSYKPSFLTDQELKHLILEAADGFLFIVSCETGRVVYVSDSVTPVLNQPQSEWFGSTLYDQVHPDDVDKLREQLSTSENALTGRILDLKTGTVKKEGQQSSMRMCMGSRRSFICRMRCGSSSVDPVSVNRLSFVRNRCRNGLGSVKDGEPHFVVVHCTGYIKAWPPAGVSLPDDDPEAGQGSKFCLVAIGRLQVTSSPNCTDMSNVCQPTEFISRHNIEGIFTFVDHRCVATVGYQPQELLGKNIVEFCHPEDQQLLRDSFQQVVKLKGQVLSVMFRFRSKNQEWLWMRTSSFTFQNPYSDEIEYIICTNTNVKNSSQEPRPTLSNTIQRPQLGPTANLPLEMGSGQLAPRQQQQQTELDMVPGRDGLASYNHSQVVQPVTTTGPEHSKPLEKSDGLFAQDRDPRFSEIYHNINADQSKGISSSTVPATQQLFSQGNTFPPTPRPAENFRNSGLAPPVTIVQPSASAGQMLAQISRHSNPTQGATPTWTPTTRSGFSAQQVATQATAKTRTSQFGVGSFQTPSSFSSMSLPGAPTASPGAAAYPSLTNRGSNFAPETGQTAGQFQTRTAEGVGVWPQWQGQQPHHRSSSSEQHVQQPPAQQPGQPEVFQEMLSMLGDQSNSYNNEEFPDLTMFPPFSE
smiles,measurement,setting,value
"CN1C(=O)C(=C2Nc3ccccc3C2=NO)c2ccccc21 [13d, 1-Methylindirubin-3′-oxime]",p27^KIP1 expression in 5L cells,[1],very effective p27^KIP1 inducers
same,proliferation rate of 5L cells,[2],reduced the rate of proliferation only in 5L cells
same,survival of 5L cells (MTT),[3],apparently not affected
same,accumulation of 5L cells in G1 phase,[4],very striking accumulation
same,IC50,"GSK-3α/β; Table 1, read-out: IC50 GSK-3 α/β",> 100 µM
same,IC50,"GSK-3α/β; Table 4, read-out: IC50 GSK-3",> 100 µM
same,IC50,"GSK-3α/β; Table 5, read-out: IC50 GSK-3α/β",> 100 µM
same,level of tyrosine phosphorylation of both GSK-3 isoforms,[5],None of these changes were observed
same,IC50,CDK5/p25; Table 1,> 100 µM
same,IC50,CDK5/p25; Table 5,> 100 µM
same,accumulation of BP8 cells in G1 phase,[6],but not of AhR −/− cells (BP8)
same,proliferation rate of BP8 cells,[7],did not effect the proliferation
same,survival of BP8 cells (MTT),[8],apparently not affected
same,EC50,AhR [9],0.129 µM
same,EC50,AhR [10],0.008 µM
same,IC50,"CDK1/cyclin B; Table 1, read-out: IC50 CDK1/cyclin B",73 µM
same,IC50,"CDK1/cyclin B; Table 4, read-out: IC50 CDK1/cycin B",73 µM
same,IC50,"CDK1/cyclin B; Table 5, read-out: IC50 CDK1/cyclin B",73 µM

# — patent US20070276025A1, “Indirubin-Type Compounds, Compositions, and Methods for Their Use” (priority 2003, published 2007)
